Reference: PMC8874475, “Antioxidant–Anti-Inflammatory Evaluation of a Polyherbal Formula” (Pharmaceuticals, 2022)

Tests used:
[1] = system: paw edema; conditions: cited from earlier work
[2] = system: egg white-induced rat paw edema; experiment: Egg white-induced rat paw edema, plethysmometry; assay type: in vivo, Wistar rats; conditions: for Average Paw Size ± SD / Average Rise in Paw Volume ± SD: n = 3; for % inhibition of paw volume: oral, 1 h before egg white, formula F 250 mg/mL at 1 mL/100 g bw, ASP 100 mg/kg
Method: Of the many methods used in screening for the anti-inflammatory effects of various drugs, the most commonly used is the method of highlighting the inhibitory effect of edema produced in the hind paw of a rat after the injection of an inflammatory product. We used whole, fresh egg white, which, due to its inflammation being maintained for a relatively short period of time, is optimal for observation. The effect was measured by the computerized plethysmometric method, the method unanimously and currently used in testing systemic anti-inflammatory effects.
The increases in the volume of the inflamed extremity at 30, 60, 120 and 180 min were expressed as a percentages compared with the volumes measured […] injection of the irritant (Table 3). The mean values of the measured volumes for each animal and the times of measurement were calculated, as were ± standard deviations, followed by the mean values per batch (Table 4). The differences between the averages of the values obtained in the treated groups and those of the control groups (with or without treatment), were calculated for each measurement moment and the anti-inflammatory indexes were evaluated.
The anti-inflammatory effect of plant extracts was evaluated by rat paw edema assay. Wistar rats, of both sexes, weighing 150–200 g provided by the Cantacuzino Institute Biobase were used for the study. Lots of equal numbers of animals (n = 3) were established for each test sample or reference product. The animals were checked at the reception and kept for a period of 7 days for acclimatization, with observation of the clinical condition, behavior and food consumption. They were weighed at the reception and after the acclimatization period, with the selection for testing of animals with weight variations less than 10% of the initial weight. The animals were housed in appropriate cages, in small groups of the same sex. The temperature of the experimental chamber was 22 ± 2 °C and the relative humidity was 50–60%. The lighting was artificial, alternately 12-h light and 12-h dark. The animals received standardized food and water ad libitum. Twelve hours before the test, they were kept at the post and allowed access to water. The measurement of the inflamed segments volumes and their subsequent evolution was performed with the help of a U40 Basile-Italy computerized plethysmometer 7140 and the CUB dedicated software program for data acquisition and storage. The test samples and the reference substance were administered orally by intragastric gavage 1 h before the injection of the inflammatory substance (whole, fresh egg white).
The animals were injected subcutaneously with a volume of 0.1 mL of the inflammatory agent on the plantar surface of the right hind limb.
The volume of the right hind limb was measured plethysometrically prior to injection with the inflammatory agent, which represented the “0” moment of the measurements. The volume of the extremity was measured repeatedly, at 30, 60, 120 and 180 min.
In order to perform the readings, the inflamed extremity was visually marked at the level of the lateral ankle, then it was introduced into the immersion liquid of the measuring cell of the device to this level, with the performance of three measurements for each animal and for each moment, established according to the working protocol, with data storage facilitated by the plethysmometer software. The samples were administered orally by intragastric gavage, as such, at a volume of 1 mL/100 g of bw. Powder samples, after suspension with Tween 80, were administered at a concentration of 250 mg/mL, at 1 mL/100 g of bw.
The reference product (acetylsalicylic acid/aspirin) (Zentiva, Bucharest, Romania) was administered in the same way, in the form of a suspension in two doses of 100 mg/kg of bw at a volume of 1 mL/100 g of bw.

[3] = system: NO; conditions: cited from earlier work

Which “inhibitory action on paw edema” value ([1]; third hour, 200 mg/kg, p < 0.05) does the source give for `CC(=O)Oc1ccccc1C(=O)O` [ASP 100, acetylsalicylic acid] here?
The value was 31.87%.

And the “Average Paw Size ± SD” value ([2]; 0 min (prior to injection))?
Its value is 1.744 ± 0.297 mL.

What about the “anti-inflammatory effect over the observation period” value ([2]; 30–180 min) of the same molecule?
Its value is “anti-inflammatory effect that was induced early”.

And the “Average Paw Size ± SD” value ([2]; 30 min)?
The value was 2.489 ± 0.241 mL.

And the “Average Rise in Paw Volume ± SD” value ([2]; 30 min)?
Its value is 0.745 ± 0.056 mL.

And the “Average Paw Size ± SD” value ([2]; 60 min)?
Its value is 2.318 ± 0.161 mL.

What about the “Average Rise in Paw Volume ± SD” value ([2]; 60 min) of the same molecule?
Its value is 0.574 ± 0.136 mL.

And the “% inhibition of paw volume” value ([2]; 60 min)?
The value was 58.20%.

And the “Average Paw Size ± SD” value ([2]; 120 min)?
Its value is 2.216 ± 0.197 mL.

And the “Average Rise in Paw Volume ± SD” value ([2]; 120 min)?
The value was 0.472 ± 0.1 mL.

And the “% inhibition of paw volume” value ([2]; 120 min)?
The value was 64.25%.

And the “Average Paw Size ± SD” value ([2]; 180 min)?
Its value is 2.211 ± 0.263 mL.

And the “Average Rise in Paw Volume ± SD” value ([2]; 180 min)?
Its value is 0.467 ± 0.034 mL.

For `CC(C)c1cc2c(c(O)c1O)[C@@]1(C(=O)O)CCCC(C)(C)[C@@H]1CC2` [Carnosic acid], which “concentration that inhibits NO completely” value [3] is on record?
Its value is over 12.5 µg/mL.

For `CC(C)c1cc2c(c(O)c1O)[C@@]13CCCC(C)(C)[C@@H]1C[C@@H]2OC3=O` [carnosol], which IC50 ([3]; read-out: IC50 NO inhibition) is on record?
Its IC50 is 9.4 µM.

Which “reduction of paw edema” value ([1]; dose of 25 mg/kg, after 6 hrs) does the source give for `O=C(/C=C/c1ccc(O)c(O)c1)O[C@H](Cc1ccc(O)c(O)c1)C(=O)O` [rosmarinic acid] here?
Its value is “over 60%”.
